For one data set, the system named is PC-3. Briefly: Antiproliferative activity against human PC-3 cells assessed as inhibition of cell growth incubated for 72 hrs by MTT assay. In kind it is functional, cell-based. The conditions noted are these: PC-3, 72 h.
The next data set concerns HCT-116. Put plainly: Antiproliferative activity against human HCT-116 cells assessed as inhibition of cell growth incubated for 72 hrs by MTT assay. In kind it is functional, cell-based. The conditions noted are these: HCT-116, 72 h. (In general: Tetrazolium dyes change colour on reduction, which living cells bring about.)
Data set [1] is described as follows: Cytotoxicity against human HUVEC cells assessed as inhibition of cell growth incubated for 72 hrs by MTT assay. In kind it is toxicity, cell-based.
In another data set the test system is SK-N-BE(2). Put plainly: Antiproliferative activity against human SK-N-BE(2) cells assessed as inhibition of cell growth incubated for 72 hrs by MTT assay. In kind it is functional, cell-based. The conditions noted are these: SKNBE2, 72 h.
For the next data set, the system named is HL-60. Put plainly: Antiproliferative activity against human HL-60 cells assessed as inhibition of cell growth incubated for 72 hrs by MTT assay. In kind it is functional, cell-based. The conditions noted are these: HL-60, 72 h.
A further data set deals with Myc-CaP. Briefly: Antiproliferative activity against mouse Myc-CaP cells assessed as inhibition of cell growth incubated for 72 hrs by MTT assay. In kind it is functional, cell-based.
In data set [2] the target is Myc proto-oncogene protein (Homo sapiens) (UniProt P01106). Briefly: Inhibition of MYC in human PC-3 cells assessed as downregulation of MYC expression at 1 uM incubated for 24 hrs by Western blotting analysis relative to control. In kind it is cell-based.
A further data set has as its system SK-OV-3. Briefly: Antiproliferative activity against human SK-OV-3 cells assessed as inhibition of cell growth incubated for 72 hrs by MTT assay. In kind it is functional, cell-based. The conditions noted are these: SK-OV-3, 72 h.
A further data set relates to HepG2. Put plainly: Antiproliferative activity against human HepG2 cells assessed as inhibition of cell growth incubated for 72 hrs by MTT assay. In kind it is functional, cell-based. The conditions noted are these: HepG2, 72 h.
The next data set has as its system MDA-MB-231. Briefly: Antiproliferative activity against human MDA-MB-231 cells assessed as inhibition of cell growth incubated for 72 hrs by MTT assay. In kind it is functional, cell-based. The conditions noted are these: MDA-MB-231, 72 h.
For another data set, the system named is A549. Briefly: Antiproliferative activity against human A549 cells assessed as inhibition of cell growth incubated for 72 hrs by MTT assay. In kind it is functional, cell-based. The conditions noted are these: A549, 72 h.
The target of data set [3] is Myc proto-oncogene protein (Homo sapiens) (UniProt P01106). Put plainly: Inhibition of MYC in human PC-3 cells assessed as downregulation of MYC expression incubated for 24 hrs by Western blotting analysis. In kind it is cell-based. A general note: In western blotting, separated proteins are transferred to a membrane and probed.
Data set [4] addresses c-Myc/c-Max (Homo sapiens) (UniProt P01106+P61244). Briefly: Inhibition of MYC/MAX protein-protein interaction in human PC-3 cells at 10 uM incubated for 1 hr by Co-immunoprecipitation based immunoblotting analysis. In kind it is cell-based.
A short description of data set [5]: Cytotoxicity against human GES1 cells assessed as inhibition of cell growth incubated for 72 hrs by MTT assay. In kind it is toxicity, cell-based.
For a further data set, the system named is SGC-7901. Put plainly: Antiproliferative activity against human SGC-7901 cells assessed as inhibition of cell growth incubated for 72 hrs by MTT assay. In kind it is functional, cell-based. The conditions noted are these: SGC-7901, 72 h.
The test system of the next data set is MDA-MB-468. Briefly: Antiproliferative activity against human MDA-MB-468 cells assessed as inhibition of cell growth incubated for 72 hrs by MTT assay. The conditions noted are these: MDA-MB-468, 72 h. In kind it is functional, cell-based.
Another data set has as its system MV4-11. Briefly: Antiproliferative activity against human MV4-11 cells assessed as inhibition of cell growth incubated for 72 hrs by MTT assay. In kind it is functional, cell-based. The conditions noted are these: MV4-11, 72 h.

Results on 35 compounds are retold here after ChEMBL document CHEMBL5500426, “Directly Suppressing MYC Function with Novel Alkynyl-Substituted Phenylpyrazole Derivatives that Induce Protein Degradation and Perturb MYC/MAX Interaction” (J Med Chem, 2024).

The source made the active and inactive calls. The calls are words filed in the database; no cut-off is given here. Where only a bound is given, the exact number is not on record here.

Chain of Myc proto-oncogene protein (Homo sapiens) (P01106 whole entry): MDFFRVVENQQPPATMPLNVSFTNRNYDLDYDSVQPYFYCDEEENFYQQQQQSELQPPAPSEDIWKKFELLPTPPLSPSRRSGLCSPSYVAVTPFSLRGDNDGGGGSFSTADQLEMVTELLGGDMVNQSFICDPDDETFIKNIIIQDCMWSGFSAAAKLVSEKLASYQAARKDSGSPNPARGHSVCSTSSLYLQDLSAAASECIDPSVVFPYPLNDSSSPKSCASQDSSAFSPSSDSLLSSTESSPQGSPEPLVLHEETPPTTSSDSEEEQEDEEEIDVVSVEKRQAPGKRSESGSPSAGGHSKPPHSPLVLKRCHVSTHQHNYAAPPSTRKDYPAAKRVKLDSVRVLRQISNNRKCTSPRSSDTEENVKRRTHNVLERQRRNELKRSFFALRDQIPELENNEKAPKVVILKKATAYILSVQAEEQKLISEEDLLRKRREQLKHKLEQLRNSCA
Chain of c-Myc/c-Max (Homo sapiens) (P01106 whole entry): as above
Chain of c-Myc/c-Max (Homo sapiens) (P61244 2-160 partner limits assumed): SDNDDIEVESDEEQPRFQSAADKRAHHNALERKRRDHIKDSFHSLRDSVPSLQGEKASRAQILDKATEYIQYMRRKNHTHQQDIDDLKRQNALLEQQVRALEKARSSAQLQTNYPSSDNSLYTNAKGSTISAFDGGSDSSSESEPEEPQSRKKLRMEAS

Take `Oc1c(-c2cc(C(F)(F)F)n[nH]2)ccc(OCc2ccc(Cl)cc2)c1C#CCCN1CC2(COC2)C1`: in the data set with PC-3, the IC50 is 4.88 µM.
Turning to `Oc1c(-c2cc(C(F)(F)F)n[nH]2)ccc(C#CCCN2CCCCC2)c1-c1ccc(Cl)c(C(F)(F)F)c1`, the IC50 in the data set with PC-3 came out at 3.38 µM.
The same measure, in the same setting: to `Oc1c(-c2cc(C(F)(F)F)n[nH]2)ccc(C#CCCN2CCN(C3COC3)CC2)c1-c1ccc(Cl)c(C(F)(F)F)c1` belongs 1.89 µM.
`CN(C)CC#Cc1c(OCc2ccc(Cl)cc2)ccc(-c2cc(C(F)(F)F)n[nH]2)c1O`: the IC50 in the data set on PC-3 is more than 100 µM.
The same measure, in the same setting: to `Cn1nc(C(F)(F)F)cc1-c1ccc(OCc2ccc(Cl)cc2)c(C#CCCCO)c1O` belongs more than 100 µM; to `Oc1c(-c2cc(C(F)(F)F)n[nH]2)ccc(OCc2ccc(Cl)cc2)c1C#CCCCN1CCCCC1`, 4.42 µM; to `Oc1c(-c2cc(C(F)(F)F)n[nH]2)ccc(C#CCCN2CC3(COC3)C2)c1-c1ccc(Cl)c(C(F)(F)F)c1`, 2.8 µM.
As for `Oc1c(-c2cc(C(F)(F)F)n[nH]2)ccc(OCc2ccc(Cl)cc2)c1C#CCN1CCCC1`, the IC50 in the data set with PC-3 was more than 100 µM.
As to `Cn1nc(C(F)(F)F)cc1-c1ccc(C#CCN2CCOCC2)c(-c2ccc(Cl)c(C(F)(F)F)c2)c1O`, in the data set on PC-3, the IC50 turned out to be 58.5 µM.
As to `Oc1c(-c2cc(C(F)(F)F)n[nH]2)ccc(OCc2ccc(Cl)cc2)c1C#CCCN1CCCCC1`, in the data set with PC-3, the IC50 is 3.65 µM.
Consider `Cn1nc(C(F)(F)F)cc1-c1ccc(OCc2ccc(Cl)cc2)c(-c2ccc(Cl)c(C(F)(F)F)c2)c1O`, for which the IC50 with HCT-116 was 1370 nM; with SK-N-BE(2), 1740 nM; with HL-60 it was 3.78 µM; with Myc-CaP, 4.16 µM; in the data set on SK-OV-3 it was 1740 nM; in the data set with HepG2 it was 1570 nM. In addition, the IC50 in the data set with MDA-MB-231 turned out to be 5.84 µM; in the data set with A549 it was 4.31 µM; with SGC-7901, 4.37 µM; with MDA-MB-468, 7.08 µM; in the data set on PC-3, 6.62 µM; in the data set with MV4-11 it was 1530 nM. In addition, the IC50 at 72 h in data set [1] and in data set [5] was more than 100 µM each time. Also, the results for the inhibition in data set [2] and in [3] were 31% and “Dose-Dependent Effect”, respectively. In addition, the inhibition result in data set [4] is “Active”.
Turning to `Oc1c(-c2cc(C(F)(F)F)n[nH]2)ccc(OCc2ccc(Cl)cc2)c1C#CCN1CCN(C2COC2)CC1`, the IC50 with PC-3 was 8.24 µM.
For the compound `CC(C)(O)CCC#Cc1c(OCc2ccc(Cl)cc2)ccc(-c2cc(C(F)(F)F)n[nH]2)c1O`, the IC50 in the data set on PC-3 came to 6.7 µM.
Turning to `CN1CCN(CCC#Cc2ccc(-c3cc(C(F)(F)F)n[nH]3)c(O)c2-c2ccc(Cl)c(C(F)(F)F)c2)CC1`, the half-maximal inhibitory concentration (IC50) in the data set with PC-3 amounted to 3.07 µM.
Turning to `Oc1c(-c2cc(C(F)(F)F)n[nH]2)ccc(OCc2ccc(Cl)cc2)c1C#CCN1CCC(O)CC1`, in the data set on PC-3, the IC50 amounted to 33.4 µM.
On the same count and under the same terms, to `OCCC#Cc1c(OCc2ccc(Cl)cc2)ccc(-c2cc(C(F)(F)F)n[nH]2)c1O` belongs 31 µM; to `CN1CCN(CC#Cc2c(OCc3ccc(Cl)cc3)ccc(-c3cc(C(F)(F)F)n[nH]3)c2O)CC1`, 6.89 µM; to `Cn1nc(C(F)(F)F)cc1-c1ccc(OCc2ccc(Cl)cc2)c(C#CCN2CCOCC2)c1O`, more than 100 µM.
`Oc1c(-c2cc(C(F)(F)F)n[nH]2)ccc(C#CCN2CCOCC2)c1-c1ccc(Cl)c(C(F)(F)F)c1`: the IC50 with PC-3 was determined as 2.02 µM.
The same measure, in the same setting: to `Oc1c(-c2cc(C(F)(F)F)n[nH]2)ccc(OCc2ccc(Cl)cc2)c1C#CCN1CCCCC1` belongs 44 µM; to `Oc1c(-c2cc(C(F)(F)F)n[nH]2)ccc(OCc2ccc(Cl)cc2)c1C#CCN1CCC(N2CCOCC2)CC1`, more than 100 µM.
Still for that read-out and setting: to `CN1CCN(CC#Cc2ccc(-c3cc(C(F)(F)F)n[nH]3)c(O)c2-c2ccc(Cl)c(C(F)(F)F)c2)CC1` belongs 4.13 µM.
Still for that read-out and setting: to `Oc1c(-c2cc(C(F)(F)F)n[nH]2)ccc(OCc2ccc(Cl)cc2)c1C#CCCCN1CCOCC1` belongs 9.89 µM; to `Oc1c(-c2cc(C(F)(F)F)n[nH]2)ccc(OCc2ccc(Cl)cc2)c1C#CCCN1CCC(O)CC1`, 6.07 µM; to `Cn1nc(C(F)(F)F)cc1-c1ccc(C#CCCC(C)(C)O)c(-c2ccc(Cl)c(C(F)(F)F)c2)c1O`, 30.1 µM.
Consider `CC(C)(O)CCC#Cc1ccc(-c2cc(C(F)(F)F)n[nH]2)c(O)c1-c1ccc(Cl)c(C(F)(F)F)c1`, for which the IC50 in the data set on PC-3 amounted to 2.36 µM.
Turning to `CN1CCN(CCCC#Cc2c(OCc3ccc(Cl)cc3)ccc(-c3cc(C(F)(F)F)n[nH]3)c2O)CC1`, the IC50 in the data set with PC-3 was 8.43 µM.
Turning to `Oc1c(-c2cc(C(F)(F)F)n[nH]2)ccc(OCc2ccc(Cl)cc2)c1C#CCN1CCOCC1`, in the data set with PC-3, the IC50 turned out to be 73.2 µM.
`CN1CCN(CC#Cc2ccc(-c3cc(C(F)(F)F)nn3C)c(O)c2-c2ccc(Cl)c(C(F)(F)F)c2)CC1`: the IC50 in the data set on PC-3 worked out at 20.2 µM.
Regarding `OCCCC#Cc1c(OCc2ccc(Cl)cc2)ccc(-c2cc(C(F)(F)F)n[nH]2)c1O`, the IC50 in the data set on PC-3 was determined as 12.9 µM.
Turning to `Cn1nc(C(F)(F)F)cc1-c1ccc(C#CCCCO)c(-c2ccc(Cl)c(C(F)(F)F)c2)c1O`, the IC50 with PC-3 is 65.5 µM.
On the same count and under the same terms, to `CN1CCN(CC#Cc2c(OCc3ccc(Cl)cc3)ccc(-c3cc(C(F)(F)F)nn3C)c2O)CC1` belongs 16.6 µM; to `Oc1c(-c2cc(C(F)(F)F)n[nH]2)ccc(OCc2ccc(Cl)cc2)c1C#CCN1CC2(COC2)C1`, 23.6 µM; to `CN1CCN(CCC#Cc2c(OCc3ccc(Cl)cc3)ccc(-c3cc(C(F)(F)F)n[nH]3)c2O)CC1`, 15.3 µM.
The same measure, in the same setting: to `Oc1c(-c2cc(C(F)(F)F)n[nH]2)ccc(OCc2ccc(Cl)cc2)c1C#CCCN1CCOCC1` belongs 8.51 µM.

Usually IC50 stands for the point on the concentration scale where inhibition reaches its midpoint. As a reminder, the inhibition is how much of the control response was suppressed.
